Experimental data from US10899738B2 (THE REGENTS OF THE UNIVERSITY OF MICHIGAN, priority 2016, dated 2021).
Like-named read-outs stand apart in the source and are kept apart here.

Experiments:
menin protein = menin protein (Homo sapiens (Human), UniProt O00255); experiment: biochemical; type: binding; settings: FP competitive binding; menin protein 4 nM, FAM-MM2 probe 2 nM; read-out: Menin Binding Affinity IC50
How it was run: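 Competitive fluorescence polarization assay using FAM-labelled MLL1 peptide probe FAM-MM2 (2 nM final) preincubated with menin (4 nM final) in PBS with 0.02% bovine γ-globulin, 4% DMSO and 0.01% Triton X-100. Compounds were added and incubated 30 min at room temperature. IC50 came from nonlinear regression of competition curves, with Ki also derived.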

[1] = Cell growth inhibition, CellTiter-Glo Luminescent Cell Viability Assay; type: cell-based
How it was run: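 Cells seeded at 2,000/well with serially diluted compound and cultured 4 days at 37 °C, 5% CO2. Viability read by CellTiter-Glo luminescence; IC50 derived from dose-response.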

[2] = MOLM-13, 96 h, read-out: Cell Growth Inhibition IC50 (μM) MOLM13, MOLM13 cells, 4 days, CellTiter-Glo
[3] = MV4-11, 96 h, read-out: Cell Growth Inhibition IC50 (μM) MV4, 11, MV4, 11 cells, 4 days, CellTiter-Glo
[4] = MOLM-13, 96 h, MOLM13 cells, 4 days, CellTiter-Glo, read-out: Cell Growth Inhibition IC50 (μM) MOLM13
[5] = MV4-11, 96 h, MV4, 11 cells, 4 days, CellTiter-Glo, read-out: Cell Growth Inhibition IC50 (μM) MV4, 11

menin protein, sequence (O00255 whole entry): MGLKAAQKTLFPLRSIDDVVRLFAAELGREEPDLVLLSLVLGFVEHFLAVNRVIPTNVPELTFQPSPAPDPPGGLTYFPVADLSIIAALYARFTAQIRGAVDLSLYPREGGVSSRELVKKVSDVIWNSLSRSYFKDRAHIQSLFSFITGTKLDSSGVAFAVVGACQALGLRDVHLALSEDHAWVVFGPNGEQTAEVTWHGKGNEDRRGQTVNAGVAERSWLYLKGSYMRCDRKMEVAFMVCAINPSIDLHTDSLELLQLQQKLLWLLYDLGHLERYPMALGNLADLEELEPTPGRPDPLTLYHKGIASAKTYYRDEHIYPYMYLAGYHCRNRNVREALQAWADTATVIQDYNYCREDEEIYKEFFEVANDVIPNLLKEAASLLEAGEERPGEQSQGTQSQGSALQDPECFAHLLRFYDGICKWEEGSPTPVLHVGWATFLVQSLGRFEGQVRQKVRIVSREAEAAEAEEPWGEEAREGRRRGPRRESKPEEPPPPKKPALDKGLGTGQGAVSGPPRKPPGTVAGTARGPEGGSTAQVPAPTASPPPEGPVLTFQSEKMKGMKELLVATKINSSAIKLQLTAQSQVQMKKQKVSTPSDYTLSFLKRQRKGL

Structure (SMILES) | IC50 (menin protein) | IC50 [1, 2] | IC50 [1, 3] | IC50 [1, 4] | IC50 [1, 5]
CNC(=O)O[C@H]1CCC[C@@H]1C(Cn1cccc1)(c1ccccc1)C1CCN(CC2CN(c3ccc(S(=O)(=O)c4ccccc4)cc3)C2)CC1 (mixture of isomers) [compound 359, rac-(1S,2R)-2-(1-phenyl-1-(1-((1-(4-(phenylsulfonyl)phenyl)azetidin-3-yl)methyl)piperidin-4-yl)-2-(1H-pyrrol-1-yl)ethyl)cyclopentyl methylcarbamate] | 12 nM | 1.46 µM | 0.43 µM | – | –
N#Cc1ccc(N2CCC(CN3CCC(C4(C5CCCC5)NCCc5ccccc54)CC3)C2)cc1 (stereo not drawn) [compound 113, 4-(3-((4-(1-cyclopentyl-1,2,3,4-tetrahydroisoquinolin-1-yl)piperidin-1-yl)methyl)pyrrolidin-1-yl)benzonitrile] | 67 nM | – | – | 2.4 µM | 1.6 µM
CCc1nccn1CC(c1ccccc1)(C1CCN(CC2CN(c3ccc(C#N)cc3)C2)CC1)[C@H]1CCC[C@@H]1OC(=O)NC (mixture of isomers) [compound 408, rac-(1S,2R)-2-(1-(1-((1-(4-cyanophenyl)azetidin-3-yl)methyl)piperidin-4-yl)-2-(2-ethyl-1H-imidazol-1-yl)-1-phenylethyl)cyclopentyl methylcarbamate] | 3 nM | 0.017 ± 0.007 µM | 0.005 ± 0.002 µM | – | –
O=S(=O)(CC1CCC1)c1ccc(N2CC(CN3CCC(C4(C5CCCC5)NCCc5ccccc54)CC3)C2)cc1 (stereo not drawn) [compound 86, 1-(1-((1-(4-((cyclobutylmethyl)sulfonyl)phenyl)azetidin-3-yl)methyl)piperidin-4-yl)-1-cyclopentyl-1,2,3,4-tetrahydroisoquinoline] | 55 nM | – | – | 1.2 ± 0.5 µM | 0.864 ± 0.017 µM
CNC(=O)N[C@H]1CCC[C@@H]1C1(C2CCN(CC3CN(c4ccc(S(=O)(=O)C5CC5)cc4)C3)CC2)CN(C(C)C)Cc2ccccc21 (mixture of isomers) [compound 288, rac-1-((1S,2R)-2-(4-(1-((1-(4-(cyclopropylsulfonyl)phenyl)azetidin-3-yl)methyl)piperidin-4-yl)-2-isopropyl-1,2,3,4-tetrahydroisoquinolin-4-yl)cyclopentyl)-3-methylurea] | 12 nM | 48.8 µM | 0.35 µM | – | –
CCN1Cc2ccccc2C(C2CCCC2)(C2CCN(CC3CN(c4ccc(S(=O)(=O)c5ccc(C(=O)O)cc5)cc4)C3)CC2)C1 (stereo not drawn) [compound 164, 4-((4-(3-((4-(4-cyclopentyl-2-ethyl-1,2,3,4-tetrahydroisoquinolin-4-yl)piperidin-1-yl)methyl)azetidin-1-yl)phenyl)sulfonyl)benzoic acid] | 8 nM | – | – | 0.72 µM | 0.27 µM
CCS(=O)(=O)c1ccc(N2CC(CN3CCC(C4(C5CCCC5)NCCc5ccccc54)CC3)C2)cc1 (stereo not drawn) [compound 133, 1-cyclopentyl-1-(1-((1-(4-(ethylsulfonyl)phenyl)azetidin-3-yl)methyl)piperidin-4-yl)-1,2,3,4-tetrahydroisoquinoline] | 30 nM | – | – | 2.9 ± 0.8 µM | 1.7 ± 1 µM
CCN1Cc2ccccc2C(C2CCN(CC3CN(c4ccc(S(=O)(=O)C5CC5)cc4)C3)CC2)([C@H]2CCC[C@@H]2NC(=O)NC)C1 (mixture of isomers) [compound 289, rac-1-((1S,2R)-2-(4-(1-((1-(4-(cyclopropylsulfonyl)phenyl)azetidin-3-yl)methyl)piperidin-4-yl)-2-ethyl-1,2,3,4-tetrahydroisoquinolin-4-yl)cyclopentyl)-3-methylurea] | 4 nM | 0.32 µM | 0.17 µM | – | –
CCN1Cc2ccccc2C(C2CCCC2)(C2CCN(CC3CN(c4ccc(S(=O)(=O)c5ccnc(C(F)(F)F)c5)cc4)C3)CC2)C1 (stereo not drawn) [compound 157, 4-cyclopentyl-2-ethyl-4-(1-((1-(4-((2-(trifluoromethyl)pyridin-4-yl)sulfonyl)phenyl)azetidin-3-yl)methyl)piperidin-4-yl)-1,2,3,4-tetrahydroisoquinoline] | 16 nM | – | – | 4.4 µM | 1.8 µM
O=S(=O)(c1ccccc1)c1ccc(N2CC(CN3CCC(C4(C5CCCC5)NCCc5ccccc54)CC3)C2)cc1 (stereo not drawn) [compound 149, 1-cyclopentyl-1-(1-((1-(4-(phenylsulfonyl)phenyl)azetidin-3-yl)methyl)piperidin-4-yl)-1,2,3,4-tetrahydroisoquinoline] | 12 nM | – | – | 0.331 µM | 0.493 µM
CNC(=O)O[C@H]1CCC[C@@H]1C(C#N)(c1ccccc1)C1CCN(C2CCN(c3ccc(S(=O)(=O)c4ccccc4)cc3)CC2)CC1 (mixture of isomers) [compound 234, rac-(1S,2R)-2-(cyano(phenyl)(1′-(4-(phenylsulfonyl)phenyl)-[1,4′-bipiperidin]-4-yl)methyl)cyclopentyl methylcarbamate] | 50 nM | 6.41 µM | 1.11 µM | – | –
CC(=O)O[C@H]1CCC[C@@H]1C1(C2CCN(CC3CN(c4ccc(S(=O)(=O)C5CC5)cc4)C3)CC2)CN(C)Cc2ccc(F)cc21 (mixture of isomers) [compound 316, rac-(1S,2R)-2-(4-(1-((1-(4-(cyclopropylsulfonyl)phenyl)azetidin-3-yl)methyl)piperidin-4-yl)-6-fluoro-2-methyl-1,2,3,4-tetrahydroisoquinolin-4-yl)cyclopentyl acetate] | 3 nM | 1.8 µM | 0.3 µM | – | –
CNC(=O)O[C@H]1CCC[C@@H]1C(Cn1ccnc1)(c1cccc(F)c1)C1CCN(CC2CN(c3ccc(C#N)cc3)C2)CC1 (mixture of isomers) [compound 390, rac-(1S,2R)-2-(1-(1-((1-(4-cyanophenyl)azetidin-3-yl)methyl)piperidin-4-yl)-1-(3-fluorophenyl)-2-(1H-imidazol-1-yl)ethyl)cyclopentyl methylcarbamate] | 5 nM | 0.082 µM | 0.021 µM | – | –
CNC(=O)O[C@H]1CCC[C@@H]1C(C#N)(c1ccccc1)C1CCN(CC2(C)CN(c3ccc(S(=O)(=O)c4cnn(C)c4)cc3)C2)CC1 (mixture of isomers) [compound 372, rac-(1S,2R)-2-(cyano(1-((3-methyl-1-(4-((1-methyl-1H-pyrazol-4-yl)sulfonyl)phenyl)azetidin-3-yl)methyl)piperidin-4-yl)(phenyl)methyl)cyclopentyl methylcarbamate] | 48 nM | 5.01 µM | 2.03 µM | – | –
O=S(=O)(CC1CCCC1)c1ccc(N2CC(CN3CCC(C4(C5CCCC5)NCCc5ccccc54)CC3)C2)cc1 (stereo not drawn) [compound 91, 1-cyclopentyl-1-(1-((1-(4-((cyclopentylmethyl)sulfonyl)phenyl)azetidin-3-yl)methyl)piperidin-4-yl)-1,2,3,4-tetrahydroisoquinoline] | 42 nM | – | – | 1.7 ± 0.004 µM | 1.3 ± 0.3 µM
COC(=O)N[C@H]1CCC[C@@H]1C(C#N)(c1ccccc1)C1CCN(CC2(C)CN(c3ccc(S(=O)(=O)c4cnn(C)c4)cc3)C2)CC1 (mixture of isomers) [compound 398, methyl rac-((1S,2R)-2-(cyano(1-((3-methyl-1-(4-((1-methyl-1H-pyrazol-4-yl)sulfonyl)phenyl)azetidin-3-yl)methyl)piperidin-4-yl)(phenyl)methyl)cyclopentyl) carbamate] | 167 nM | > 10 µM | 4.57 µM | – | –
CCN1Cc2ccccc2C(C2CCCC2)(C2CCN(CC3CN(c4ccc(S(=O)(=O)c5cccnc5)cc4)C3)CC2)C1 (stereo not drawn) [compound 152, 4-cyclopentyl-2-ethyl-4-(1-((1-(4-(pyridin-3-ylsulfonyl)phenyl)azetidin-3-yl)methyl)piperidin-4-yl)-1,2,3,4-tetrahydroisoquinoline] | 9 nM | – | – | 0.49 µM | 0.46 µM
CCN1Cc2ccccc2C(C2CCCC2)(C2CCN(CC3CN(c4ccc(S(=O)(=O)c5ccn(C)c5)cc4)C3)CC2)C1 (stereo not drawn) [compound 101, 4-cyclopentyl-2-ethyl-4-(1-((1-(4-((1-methyl-1H-pyrrol-3-yl)sulfonyl)phenyl)azetidin-3-yl)methyl)piperidin-4-yl)-1,2,3,4-tetrahydroisoquinoline] | 10 nM | – | – | 0.73 µM | 0.3 µM
CC(=O)N[C@@H]1CCC[C@H]1C1(C2CCN(CC3CN(c4ccc(S(=O)(=O)c5ccncc5)cc4)C3)CC2)CN(C)Cc2ccccc21 (mixture of isomers) [compound 272, rac-N-((1R,2S)-2-(2-methyl-4-(1-((1-(4-(pyridin-4-ylsulfonyl)phenyl)azetidin-3-yl)methyl)piperidin-4-yl)-1,2,3,4-tetrahydroisoquinolin-4-yl)cyclopentyl)acetamide] | 180 nM | 2.97 µM | 4.29 ± 1.45 µM | – | –
CC(=O)N[C@H]1CCC[C@@H]1C1(C2CCN(CC3CN(c4ccc(S(=O)(=O)c5cnn(C)c5)cc4)C3)CC2)CNCc2ccccc21 (mixture of isomers) [compound 286, rac-N-((1S,2R)-2-(4-(1-((1-(4-((1-methyl-1H-pyrazol-4-yl)sulfonyl)phenyl)azetidin-3-yl)methyl)piperidin-4-yl)-1,2,3,4-tetrahydroisoquinolin-4-yl)cyclopentyl)acetamide] | 4 nM | 5.69 µM | 0.48 µM | – | –
CNC(=O)O[C@H]1CCC[C@@H]1C(C#N)(c1ccccc1)C1CCN(CC2CN(c3ccc(S(=O)(=O)c4nn(C)cc4Br)cc3)C2)CC1 (mixture of isomers) [compound 228, rac-(1S,2R)-2-((1-((1-(4-((4-bromo-1-methyl-1H-pyrazol-3-yl)sulfonyl)phenyl)azetidin-3-yl)methyl)piperidin-4-yl)(cyano)(phenyl)methyl) cyclopentyl methylcarbamate] | 4 nM | 0.25 µM | 0.18 µM | – | –
